# Results: patent publication US8993779B2, “Positive allosteric modulators of MGLUR2” (Merck Sharp & Dohme Corp., priority 2010, dated 2015)
# Biological target: T1, recombinant human mGluR2 (Homo sapiens, UniProt Q14416)
# T1 construct: expressed in transfected cells
# Test: FLIPR Ca2+ mobilization assay, potentiation of mGluR2 receptor
# Format: cell-based
# Conditions: CHO dhfr- cells expressing human mGluR2 and Gα16; potentiation after EC20 glutamate (900 nM); read-out: FLIPR EC50
# Description: Activity in potentiating the mGluR2 receptor may be determined as follows. The compounds of the present invention are tested in a fluorescence laser imaging plate reader (FLIPR) based assay. This assay is a common functional assay to monitor Ca^2+ mobilization in whole cells expressing recombinant receptor coupled with a promiscuous G-protein. CHO dhfr-cells stably expressing recombinant human mGluR2 and Gα16 loaded with Fluo-4 AM (Invitrogen, Carlsbad Calif.) are treated with dose responses of compounds and the Ca^2+ response is monitored on a FLIPR384 (Molecular Devices, Sunnydale Calif.) for agonist activity. The potentiation response is monitored after a subsequent addition of an EC20 concentration of glutamate (900 nM). The maximum calcium response at each concentration of compound for agonist or potentiation are plotted as dose responses and the curves are fitted with a four parameters logistic equation giving EC50 and Hill coefficient using the iterative non linear curve fitting software program.
# T1 sequence (Q14416 19-872): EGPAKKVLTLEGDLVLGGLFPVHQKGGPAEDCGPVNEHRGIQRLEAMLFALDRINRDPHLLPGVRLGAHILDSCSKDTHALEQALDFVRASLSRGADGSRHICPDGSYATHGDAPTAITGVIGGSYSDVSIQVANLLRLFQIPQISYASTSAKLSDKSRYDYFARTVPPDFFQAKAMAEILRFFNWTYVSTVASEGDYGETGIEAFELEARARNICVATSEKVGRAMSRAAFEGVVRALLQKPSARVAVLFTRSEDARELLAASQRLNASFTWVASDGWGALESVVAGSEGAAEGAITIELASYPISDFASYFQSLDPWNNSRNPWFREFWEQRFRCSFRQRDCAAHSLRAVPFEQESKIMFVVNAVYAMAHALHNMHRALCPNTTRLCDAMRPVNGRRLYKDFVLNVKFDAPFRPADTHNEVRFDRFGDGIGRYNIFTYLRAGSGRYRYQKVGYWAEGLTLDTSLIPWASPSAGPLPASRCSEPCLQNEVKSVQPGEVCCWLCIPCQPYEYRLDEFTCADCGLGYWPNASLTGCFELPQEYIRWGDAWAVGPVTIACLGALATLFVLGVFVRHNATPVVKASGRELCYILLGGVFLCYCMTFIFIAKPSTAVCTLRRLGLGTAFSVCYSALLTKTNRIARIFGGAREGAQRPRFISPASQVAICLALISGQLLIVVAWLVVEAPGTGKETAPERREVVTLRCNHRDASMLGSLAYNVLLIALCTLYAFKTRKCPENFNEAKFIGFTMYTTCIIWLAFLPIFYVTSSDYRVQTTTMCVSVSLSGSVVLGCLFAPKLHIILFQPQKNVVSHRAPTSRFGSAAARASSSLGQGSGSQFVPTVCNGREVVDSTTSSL
row,Structure (SMILES),EC50 [nM]
1,"N#CCn1c(=O)n(CC2CC2)c2ccc(-c3ccccc3)cc21 [Example 1-9, [3-(cyclopropylmethyl)-2-oxo-6-phenyl-2,3-dihydro-1H-benzimidazol-1-yl]acetonitrile]",264
2,"COc1ncc(-c2ccc3c(c2)n(C)c(=O)n3CC(C)(C)C)c(OC)n1 [Example 1-61, 5-(2,4-dimethoxypyrimidin-5-yl)-1-(2,2-dimethylpropyl)-3-methyl-1,3-dihydro-2H--benzimidazol-2-one]",2660
3,"Cc1ccc(-c2ccc3c(c2)n(C)c(=O)n3CC(C)(C)C)c(C#N)c1 [Example 1-94, 2-[1-(2,2-dimethylpropyl)-3-methyl-2-oxo-2,3-dihydro-1H-benzimidazol-5-yl]-5-methylbenzonitrile]",41
4,"Cn1c(=O)n(CC(C)(C)C)c2ccc(-c3ncccc3C(F)(F)F)cc21 [Example 1-148, 1-(2,2-dimethylpropyl)-3-methyl-5-[3-(trifluoromethyl)pyridin-2-yl]-1,3-dihydro-2H-benzimidazol-2-one]",126
5,"Cn1c(=O)n(CC(C)(C)C)c2ccc(-c3ccc4c(c3)CN(C(=O)OC(C)(C)C)CC4)cc21 [Example 1-187, tert-butyl 7-[1-(2,2-dimethylpropyl)-3-methyl-2-oxo-2,3-dihydro-1H-benzimidazol-5-yl]-3,4-dihydroisoquinoline-2(1H)-carboxylate]",182
6,"Cn1c(=O)n(CC(C)(C)C)c2ccc(-c3cccc(Oc4cc(C(F)(F)F)ccn4)c3)cc21 [Example 2-4, 1-(2,2-dimethylpropyl)-3-methyl-5-(3-{[4-(trifluoromethyl)pyridin-2-yl]oxy}phenyl)-1,3-dihydro-2H-benzimidazol-2-one]",496
7,"Cn1c(=O)n(CC(C)(C)C)c2ccc(-c3cc(C#N)cc(Oc4ccnc(C#N)c4)c3)cc21 [Example 2-38, 4-{3-cyano-5-[1-(2,2-dimethylpropyl)-3-methyl-2-oxo-2,3-dihydro-1H-benzimidazol-5-yl]phenoxy}pyridine-2-carbonitrile]",41
8,"Cn1c(=O)n(CC(C)(C)C)c2ccc(-c3cccc(OCc4ccccc4C(F)(F)F)c3)cc21 [Example 3-3, 1-(2,2-dimethylpropyl)-3-methyl-5-(3-{[2-(trifluoromethyl)benzyl]oxy}phenyl)-1,3-dihydro-2H-benzimidazol-2-one]",3650
9,"Cn1c(=O)n(CC(C)(C)C)c2ccc(-c3cccc(Oc4ccccc4)c3)cc21 [Example 4-8, 1-(2,2-dimethylpropyl)-3-methyl-5-(3-phenoxyphenyl)-1,3-dihydro-2H-benzimidazol-2-one]",1250
10,"CN1CCCC(Oc2cccc(-c3ccc4c(c3)n(C)c(=O)n4CC(C)(C)C)n2)C1 (stereo not shown) [Example 5-12, 1-(2,2-dimethylpropyl)-3-methyl-5-{6-[(1-methylpiperidin-3-yl)oxy]pyridin-2-yl}-1,3-dihydro-2H-benzimidazol-2-one]",3350
11,"Cn1c(=O)n(CC(C)(C)C)c2ccc(-c3cncc(Oc4ccc(C#N)nc4)n3)cc21 [Example 5-22, 5-({6-[1-(2,2-dimethylpropyl)-3-methyl-2-oxo-2,3-dihydro-1H-benzimidazol-5-yl]pyrazin-2-yl}oxy)pyridine-2-carbonitrile]",364
12,"Cn1c(=O)n(-c2cccc(C(F)(F)F)c2)c2ccc(-c3ccccc3C#N)cc21 [Example 6-9, 2-{3-methyl-2-oxo-1-[3-(trifluoromethyl)phenyl]-2,3-dihydro-1H-benzimidazol-5-yl}benzonitrile]",45
13,"CN1CCN(c2ccc(-c3ccc4c(c3F)n(C)c(=O)n4CC3(C)CC3)cn2)CC1 [Example 7-19, 4-fluoro-3-methyl-1-[(1-methylcyclopropyl)methyl]-5-[6-(4-methylpiperazin-1-yl)pyridin-3-yl]-1,3-dihydro-2H-benzimidazol-2-one]",781
14,"Cn1c(=O)n(CC2CC2)c2ccc(-c3ccncc3C(F)(F)F)c(F)c21 [Example 7-47, 1-(cyclopropylmethyl)-4-fluoro-3-methyl-5-[3-(trifluoromethyl)pyridin-4-yl]-1,3-dihydro-2H-benzimidazol-2-one]",77
15,"Cn1c(=O)n(CC(C)(C)C)c2ccc(-c3cc(Oc4cccc(C#N)n4)ccc3C#N)c(F)c21 [Example 8-5, 6-{4-cyano-3-[1-(2,2-dimethylpropyl)-4-fluoro-3-methyl-2-oxo-2,3-dihydro-1H-benzimidazol-5-yl]phenoxy}pyridine-2-carbonitrile]",40
16,"Cn1c(=O)n(CC(C)(C)C)c2ccc(-c3cccc(C(O)c4ccccc4)c3)cc21 (stereo not shown) [Example 10-3, 1-(2,2-dimethylpropyl)-5-{3-[hydroxy(phenyl)methyl]phenyl}-3-methyl-1,3-dihydro-2H-benzimidazol-2-one]",129
17,"Cn1c(=O)n(CC(C)(C)C)c2ccc(-c3cccc(C(C)(O)c4ccccc4)n3)cc21 (stereo not shown) [Example 10-5, 1-(2,2-dimethylpropyl)-5-[6-(1-hydroxy-1-phenylethyl)pyridin-2-yl]-3-methyl-1,3-dihydro-2H-benzimidazol-2-one]",225

# Same assay, conditions: potentiation after EC20 glutamate (900 nM); read-out: EC50 potentiating the mGluR2 receptor in the FLIPR assay
row,Structure (SMILES),EC50 [nM]
1,"Cc1ccccc1-c1ccc2c(c1)n(C)c(=O)n2C1CCN(c2ncccn2)CC1 [Example 1-201, 3-methyl-5-(2-methylphenyl)-1-(1-pyrimidin-2-ylpiperidin-4-yl)-1,3-dihydro-2H-benzimidazol-2-one]",12000
2,"Cc1ccccc1-c1ccc2c(c1)n(C)c(=O)n2C1CCNCC1 [Example 1-202, 3-methyl-5-(2-methylphenyl)-1-piperidin-4-yl-1,3-dihydro-2H-benzimidazol-2-one]",> 30000
3,"Cn1c(=O)n(C2CCNCC2)c2ccc(-c3ccccc3C(N)=O)cc21 [Example 1-203, 2-(3-methyl-2-oxo-1-piperidin-4-yl-2,3-dihydro-1H-benzimidazol-5-yl)benzamide]",> 30000
4,"Cc1ccccc1-c1ccc2c(c1)n(C)c(=O)n2C1CCN(C(=O)OC(C)(C)C)CC1 [Example 1-205, tert-butyl 4-[3-methyl-5-(2-methylphenyl)-2-oxo-2,3-dihydro-1H-benzimidazol-1-yl]piperidine-1-carboxylate]",> 30000
5,"Cn1c(=O)n(C2CCN(c3ncccn3)CC2)c2ccc(-c3ccccc3C(N)=O)cc21 [Example 1-206, 2-[3-methyl-2-oxo-1-(1-pyrimidin-2-ylpiperidin-4-yl)-2,3-dihydro-1H-benzimidazol-5-yl]benzamide]",20000
